Experiments:
Details in all cases: 72 h
Caco-2 [1] = test: cell viability relative to DMSO; higher = less toxic
HepG2 [2] = test: as above
Vero E6 [3] = test: as above
Caco-2 [4] = test: relative viability EC50 (midpoint between 100% and the lowest measured viability); higher = less toxic
Vero E6 [5] = test: as above
Caco-2 [6] = test: drug sensitivity score (DSS) for viability; higher = more toxic; extreme values may be limits of the assay
HepG2 [7] = test: as above
Vero E6 [8] = test: as above
Calu-3 [9] = test: cell viability relative to DMSO; higher = less toxic
U2OS [10] = test: as above
HepG2 [11] = test: relative viability EC50 (midpoint between 100% and the lowest measured viability); higher = less toxic
U2OS [12] = test: as above
Calu-3 [13] = test: drug sensitivity score (DSS) for viability; higher = more toxic; extreme values may be limits of the assay
U2OS [14] = test: as above
Calu-3 [15] = test: relative viability EC50 (midpoint between 100% and the lowest measured viability); higher = less toxic

Row | SMILES | cell viability (Caco-2 [1]; 1 nM) [%] | cell viability (Caco-2 [1]; 10 nM) [%] | cell viability (Caco-2 [1]; 100 nM) [%] | cell viability (Caco-2 [1]; 1000 nM) [%] | cell viability (Caco-2 [1]; 10000 nM) [%] | cell viability (HepG2 [2]; 1 nM) [%] | cell viability (HepG2 [2]; 10 nM) [%] | cell viability (HepG2 [2]; 100 nM) [%] | cell viability (HepG2 [2]; 1000 nM) [%] | cell viability (HepG2 [2]; 10000 nM) [%] | cell viability (Vero E6 [3]; 1 nM) [%] | cell viability (Vero E6 [3]; 10 nM) [%] | cell viability (Vero E6 [3]; 100 nM) [%] | cell viability (Vero E6 [3]; 1000 nM) [%] | cell viability (Vero E6 [3]; 10000 nM) [%] | relative viability EC50 (Caco-2 [4]) [µM] | relative viability EC50 (Vero E6 [5]) [µM] | drug sensitivity score (Caco-2 [6]) | drug sensitivity score (HepG2 [7]) | drug sensitivity score (Vero E6 [8]) | cell viability (Calu-3 [9]; 1 nM) [%] | cell viability (Calu-3 [9]; 10 nM) [%] | cell viability (Calu-3 [9]; 100 nM) [%] | cell viability (Calu-3 [9]; 1000 nM) [%] | cell viability (Calu-3 [9]; 10000 nM) [%] | cell viability (U2OS [10]; 1 nM) [%] | cell viability (U2OS [10]; 10 nM) [%] | cell viability (U2OS [10]; 100 nM) [%] | cell viability (U2OS [10]; 1000 nM) [%] | cell viability (U2OS [10]; 10000 nM) [%] | relative viability EC50 (HepG2 [11]) [µM] | relative viability EC50 (U2OS [12]) [µM] | drug sensitivity score (Calu-3 [13]) | drug sensitivity score (U2OS [14]) | relative viability EC50 (Calu-3 [15]) [µM]
1 | COc1cc2ncnc(Oc3cccc(NC(=O)Nc4cc(C(C)(C)C(F)(F)F)on4)c3)c2cc1OC | 102 | 94.1 | 97.5 | 93.2 | 93.8 | 114 | 93.9 | 110 | 93.7 | 59.8 | 100 | 97.1 | 108 | 108 | 88.3 | > 10 | > 10 | 0 | 3 | 0 |  |  |  |  |  |  |  |  |  |  |  |  |  |  | 
2 | COc1ccc(C(=O)N2CCCc3cc(C4=NNC(=O)SC4C)ccc32)cc1OC (stereo not given) | 95.4 | 94.2 | 89.8 | 83.7 | 71.5 | 83.4 | 80.2 | 95.9 | 90.1 | 81.2 | 103 | 100 | 102 | 83.7 | 67.7 |  |  | 3.2 | 0 | 3.5 | 97.5 | 93.4 | 101 | 87.7 | 70.1 | 96.2 | 104 | 103 | 96.8 | 90.2 | > 10 | > 10 | 2.9 | 0 | 
3 | COc1cccc(Nc2c(C(N)=O)cnc3c(C)cc(S(=O)(=O)c4cccc(C(=O)N(C)C)c4)cc23)c1 |  |  |  |  |  |  |  |  |  |  |  |  |  |  |  |  |  |  | 0 | 0 |  |  |  |  |  |  |  |  |  |  |  |  |  | 0 | 
4 | N#Cc1cc2c(OCC(O)CN3CCN(C(c4ccccc4)c4ccccc4)CC3)cccc2[nH]1 (stereo not given) | 106 | 92.7 | 112 | 92.9 | 68.3 | 83.5 | 96.1 | 96.8 | 101 | 38.9 | 101 | 103 | 95.5 | 98.9 | 53.5 |  |  | 2.5 | 3.2 | 2.5 | 105 | 93.4 | 95.2 | 97.8 | 95.7 | 96.3 | 101 | 102 | 100 | 92.5 | 3.3 | > 10 | 0 | 0 | > 10
5 | O=C(NC[C@H](O)CO)c1ccncc1Nc1ccc(I)cc1F | 92.8 | 93.2 | 81.7 | 73 | 61.7 | 102 | 62.9 | 35 | 20.5 | 15.8 | 98.2 | 85.4 | 67.4 | 52 | 52.7 |  |  | 6.9 | 27.2 | 13.5 | 96.8 | 83.1 | 67.3 | 51 | 31.9 | 94.6 | 94.5 | 91.6 | 91.8 | 29.9 | 0.0178 | 2.2 | 14.8 | 5.2 | 0.104
6 | Cc1cc(Nc2nc(N[C@@H](C)c3ccc(F)cc3)c(C#N)cc2F)n[nH]1 [AZ960] | 112 | 109 | 118 | 77.8 | 51.8 | 111 | 105 | 96.7 | 43.2 | 33.6 | 99.3 | 99.6 | 100 | 65.9 | 40.9 |  | 0.883 | 5.4 | 10.9 | 7.4 | 118 | 103 | 96.1 | 83.9 | 38.9 | 104 | 101 | 104 | 76.3 | 27.8 | 0.422 | 1.33 | 5.8 | 7.4 | 1.51
7 | COc1cc(OC2CCN(C)CC2)ccc1Nc1ncc2c(n1)n(C1CCCC1)c(=O)n2C [AZ3146] | 103 | 101 | 104 | 95 | 76.8 | 106 | 97.9 | 102 | 96.1 | 28.8 | 111 | 104 | 103 | 99.4 | 41.8 | > 10 | 3.1 | 1.5 | 4.5 | 3.2 | 95.5 | 87.4 | 93.6 | 84.4 | 62.4 | 100 | 104 | 101 | 92.2 | 57 | 2.74 |  | 3.8 | 3.5 | 
8 | O=C1c2ccccc2-c2c(NCCc3ccccc3)c(=O)[nH]c3cccc1c23 [BRD7389] | 103 | 102 | 97.3 | 71.6 | 61.9 | 98.8 | 101 | 99 | 45.7 | 34.8 | 102 | 102 | 101 | 69.1 | 33.5 |  | 1.06 | 5.3 | 10.1 | 7.7 | 97.4 | 100 | 97.6 | 83.1 | 72.5 | 97.2 | 102 | 95.5 | 68.5 | 44.5 | 0.525 | 0.795 | 2.8 | 6.7 | 
9 | CNC(=O)[C@H]1O[C@@H](n2cnc3c(NCc4cccc(I)c4)nc(Cl)nc32)[C@H](O)[C@@H]1O [CF102] |  |  |  |  |  | 100 | 102 | 108 | 106 | 99.3 | 110 | 99.5 | 104 | 98.3 | 102 |  | > 10 |  | 0 | 0 | 99.1 | 116 | 93.2 | 102 | 98.3 |  |  |  |  |  | > 10 |  | 0 |  | > 10
10 | COc1cc(/C=C2\CCCN([C@@H](C)c3ccc(F)cc3)C2=O)ccc1-n1cnc(C)c1 [E-2012] | 106 | 101 | 94.9 | 98.8 | 72.6 | 109 | 97.5 | 100 | 99 | 60.1 | 93.1 | 104 | 98.7 | 98.8 | 106 |  | > 10 | 1.3 | 2.1 | 0 | 102 | 99.2 | 106 | 104 | 114 | 103 | 97.7 | 101 | 104 | 97.4 |  | > 10 | 0 | 0 | > 10
11 | O=C1[C@H](Cc2ccc(O)cc2)N2C(=O)CCN(C(=O)NCc3ccccc3)[C@H]2CN1Cc1cccc2ccccc12 [ICG-001] | 91.5 | 94.2 | 99.7 | 91 | 68.8 | 102 | 105 | 110 | 105 | 43.5 | 90 | 99.2 | 91.3 | 97.2 | 106 |  | > 10 | 2.7 | 2.7 | 0 | 97.4 | 106 | 97.1 | 100 | 53.1 |  |  |  |  |  | 3.6 |  | 2.4 |  | 
12 | Cc1sc2c(c1C)C(c1ccc(Cl)cc1)=N[C@@H](CC(=O)OC(C)(C)C)c1nnc(C)n1-2 [JQ1-(+)] |  |  |  |  |  |  |  |  |  |  |  |  |  |  |  |  |  |  | 10 | 17.3 |  |  |  |  |  |  |  |  |  |  |  |  | 6 | 9.2 | 
13 | Cc1csc2c(N[C@@H](C)CN3CCN(S(=O)(=O)c4ccc(Cl)c(Cl)c4)CC3)ncnc12 [LPA2-antagonist-1] | 96.3 | 107 | 95.3 | 80.9 | 64.4 | 106 | 97.9 | 93.2 | 36.6 | 18.6 | 95.2 | 97.1 | 102 | 93.2 | 82.5 |  | > 10 | 3.7 | 12.8 | 1.1 | 90.5 | 104 | 96.9 | 103 | 93.6 | 97.6 | 101 | 97.4 | 97 | 58.7 | 0.451 |  | 0 | 2.5 | > 10
14 | COc1ccc(CNC(=O)c2cc(-c3cncc(C)c3)ncc2-c2nccs2)nc1OC [MK-3697] |  |  |  |  |  | 99.8 | 91.2 | 94.9 | 98.5 | 105 | 103 | 104 | 109 | 111 | 92.7 |  | > 10 |  | 0 | 0 | 89 | 101 | 83.4 | 92.5 | 99.9 | 97.4 | 103 | 94.7 | 99.3 | 99.1 | > 10 | > 10 | 0 | 0 | > 10
15 | O=C(O)[C@]1(Cc2cccc(Nc3nccs3)n2)CC[C@@H](Oc2cccc(Cl)c2F)CC1 [MK-5108] | 95.6 | 100 | 90.2 | 76.2 | 70.7 | 111 | 106 | 99.3 | 62.2 | 40.2 | 97.3 | 100 | 100 | 94.6 | 79.5 |  | > 10 | 4.6 | 7.8 | 1.3 | 98.6 | 90.3 | 89.1 | 88 | 76.8 | 97.9 | 100 | 94.5 | 95.1 | 73.3 | 0.787 |  | 2.4 | 1.8 | > 10
16 | O=C(Nc1ccc(OC(F)(F)F)cc1)c1sccc1NCc1ccnc2ccccc12 [OSI-930] | 107 | 102 | 94.1 | 97.9 | 69.3 | 103 | 98.5 | 91.3 | 89 | 67 |  |  |  |  |  |  |  | 1.7 | 2.5 |  | 91.6 | 111 | 93.6 | 112 | 78 | 97.8 | 101 | 99.8 | 104 | 92.2 |  | > 10 | 0.4 | 0 | > 10
